Values of other authors, collected in patent US20230279502A1, “IDENTIFICATION OF ESTROGEN RECEPTOR POSITIVE (ER+) BREAST CANCERS THAT WILL NOT DEVELOP TAMOXIFEN RESISTANCE” (Rutgers, The State University of New Jersey, priority 2020, published 2023).

Key:
human cancer cell lines = settings: different human cancer cell lines, based on expression levels of the read-out genes; high AUCs = decreased sensitivity
ER+ breast cancers = settings: ER+ breast cancer patients treated with tamoxifen

## CC/C(=C(\c1ccccc1)c1ccc(OCCN(C)C)cc1)c1ccccc1 [tamoxifen]
Human cancer cell lines
  Sensitivity to tamoxifen treatment (area under the dose-response curve): decreased sensitivity
ER+ breast cancers
  Treated patients that develop therapeutic resistance: ~30%
